Activity calls are given as the source filed them.
Columns and labels:
[1] = target: Peroxisome proliferator-activated receptor gamma/Nuclear receptor coactivator 2 (Homo sapiens, UniProt P37231); test: (§1) TR-FRET dose response biochemical High Throughput Screening assay for agonists of the steroid receptor coactivator 2 (SRC-2) recruitment by the peroxisome proliferator-activated receptor gamma (PPAR gamma): non-selective agonists. [Related pubchem assays: 1297, 1032 ]; type: functional
[2] = target: Peroxisome proliferator-activated receptor gamma/Nuclear receptor coactivator 3 (Homo sapiens, UniProt P37231); test: as §1, with “3 (SRC-3)” for “2 (SRC-2)”, “1301 (Confirmation screen.), 1048 (Primary screen.)]” for “1297, 1032 ]”; type: functional
[3] = target: Peroxisome proliferator-activated receptor gamma/Nuclear receptor coactivator 1 (Homo sapiens, UniProt P37231); test: as §1, with “1 (SRC-1)” for “2 (SRC-2)”, “assays (depositor defined):AID1300, AID1808, AID504735, AID631]” for “assays: 1297, 1032 ]”; type: protein assay
Peroxisome proliferator-activated receptor gamma/Nuclear receptor coactivator 1, sequence (P37231 whole entry): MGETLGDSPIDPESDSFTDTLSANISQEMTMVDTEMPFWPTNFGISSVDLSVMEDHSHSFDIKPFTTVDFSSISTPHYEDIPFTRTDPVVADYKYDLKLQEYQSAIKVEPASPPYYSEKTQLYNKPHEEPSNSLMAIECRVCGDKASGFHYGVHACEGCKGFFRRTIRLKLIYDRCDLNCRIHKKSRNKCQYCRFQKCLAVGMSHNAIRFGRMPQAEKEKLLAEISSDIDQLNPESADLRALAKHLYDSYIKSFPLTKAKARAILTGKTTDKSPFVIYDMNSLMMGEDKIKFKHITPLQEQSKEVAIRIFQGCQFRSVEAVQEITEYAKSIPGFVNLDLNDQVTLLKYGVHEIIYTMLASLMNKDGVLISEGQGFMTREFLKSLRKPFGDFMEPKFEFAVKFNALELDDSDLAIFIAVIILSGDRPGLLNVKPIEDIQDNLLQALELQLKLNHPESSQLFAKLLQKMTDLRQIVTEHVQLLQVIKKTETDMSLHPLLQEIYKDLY
Peroxisome proliferator-activated receptor gamma/Nuclear receptor coactivator 1, sequence (Q15788 whole entry, further chain): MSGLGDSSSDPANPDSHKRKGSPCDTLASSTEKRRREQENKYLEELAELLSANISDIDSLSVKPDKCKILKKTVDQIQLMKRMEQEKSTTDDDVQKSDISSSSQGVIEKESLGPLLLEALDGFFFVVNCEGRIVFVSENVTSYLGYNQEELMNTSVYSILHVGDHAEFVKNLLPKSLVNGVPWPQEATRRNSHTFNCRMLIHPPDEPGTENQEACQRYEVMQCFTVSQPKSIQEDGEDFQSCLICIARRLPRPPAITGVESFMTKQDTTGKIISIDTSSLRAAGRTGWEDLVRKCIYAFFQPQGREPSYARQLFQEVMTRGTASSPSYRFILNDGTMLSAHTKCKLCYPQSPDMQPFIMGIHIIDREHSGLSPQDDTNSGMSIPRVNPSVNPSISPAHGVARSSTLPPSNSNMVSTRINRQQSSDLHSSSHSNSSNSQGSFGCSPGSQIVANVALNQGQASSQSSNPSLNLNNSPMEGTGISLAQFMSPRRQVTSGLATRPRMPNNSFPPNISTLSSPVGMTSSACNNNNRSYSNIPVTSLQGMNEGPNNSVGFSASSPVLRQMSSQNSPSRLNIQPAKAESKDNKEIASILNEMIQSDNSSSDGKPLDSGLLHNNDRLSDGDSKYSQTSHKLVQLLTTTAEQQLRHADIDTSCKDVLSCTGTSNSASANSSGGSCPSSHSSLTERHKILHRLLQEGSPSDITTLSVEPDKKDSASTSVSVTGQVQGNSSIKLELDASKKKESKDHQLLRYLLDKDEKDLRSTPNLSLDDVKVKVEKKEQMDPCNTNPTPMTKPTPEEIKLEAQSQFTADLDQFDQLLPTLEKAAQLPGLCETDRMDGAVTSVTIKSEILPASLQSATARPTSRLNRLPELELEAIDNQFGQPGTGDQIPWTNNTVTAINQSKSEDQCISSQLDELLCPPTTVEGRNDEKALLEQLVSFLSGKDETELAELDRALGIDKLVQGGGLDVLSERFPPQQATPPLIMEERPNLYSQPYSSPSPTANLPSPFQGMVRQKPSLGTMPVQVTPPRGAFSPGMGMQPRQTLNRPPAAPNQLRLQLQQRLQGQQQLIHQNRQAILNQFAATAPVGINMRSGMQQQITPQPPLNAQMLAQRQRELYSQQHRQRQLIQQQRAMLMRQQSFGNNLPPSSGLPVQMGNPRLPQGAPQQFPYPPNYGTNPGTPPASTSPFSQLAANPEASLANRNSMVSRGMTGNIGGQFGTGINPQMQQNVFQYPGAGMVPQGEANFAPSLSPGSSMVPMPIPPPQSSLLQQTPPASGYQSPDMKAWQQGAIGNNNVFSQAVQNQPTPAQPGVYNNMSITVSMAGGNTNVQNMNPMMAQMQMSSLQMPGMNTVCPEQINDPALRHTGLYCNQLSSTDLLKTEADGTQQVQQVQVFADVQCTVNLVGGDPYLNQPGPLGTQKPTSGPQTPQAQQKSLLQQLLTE

HEK293 [4] = test: cells; settings: Homo sapiens
HEK293 [5] = test: cells; settings: Homo sapiens; remark: listed apart in the source
[6] = target: T1, Heat shock factor protein 1 (Mus musculus, UniProt P38532); test: inhibition of MG132-induced HSE-luciferase signal, confirmation, cell-based, NIH3T3, luminescence, dose retest (AID 2382); type: functional;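 note: NIH3T3 fibroblasts with HSF1-driven luciferase reporter stressed by proteasome inhibitor MG132; luminescence from HSF1-driven luciferase expression after 8 hours of MG132 stress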
T1 sequence (P38532 whole entry): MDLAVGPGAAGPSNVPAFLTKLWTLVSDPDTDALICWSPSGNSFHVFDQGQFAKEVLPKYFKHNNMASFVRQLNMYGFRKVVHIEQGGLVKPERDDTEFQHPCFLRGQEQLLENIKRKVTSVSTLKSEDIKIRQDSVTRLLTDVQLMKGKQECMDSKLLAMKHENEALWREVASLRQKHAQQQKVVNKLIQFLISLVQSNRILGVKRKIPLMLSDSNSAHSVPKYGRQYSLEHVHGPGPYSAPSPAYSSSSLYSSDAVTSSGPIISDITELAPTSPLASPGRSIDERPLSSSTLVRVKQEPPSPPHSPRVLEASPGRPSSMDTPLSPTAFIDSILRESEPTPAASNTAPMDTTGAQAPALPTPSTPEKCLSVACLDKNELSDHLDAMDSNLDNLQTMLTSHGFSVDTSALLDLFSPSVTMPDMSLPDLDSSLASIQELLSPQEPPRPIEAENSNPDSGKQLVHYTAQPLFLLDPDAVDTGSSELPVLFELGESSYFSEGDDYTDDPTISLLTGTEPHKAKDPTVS

[7] = cytotoxicity in HMLE control line with eGFP shRNA, dose response, counter-screen for HMLE_sh_ECad selective toxicity project, cell-based, HMLE_sh_eGFP, luminescence (AID 463074); type: functional, Homo sapiens;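 note: HMLE human mammary epithelial cells expressing control shRNA against eGFP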
[8] = Luminescence Cell-Based Dose Retest to Confirm Inhibitors of Cancer Stem Cells. [Related pubchem assays (depositor defined):AID2717, AID2721]; type: functional; settings: Homo sapiens

Peroxisome proliferator-activated receptor gamma/Nuclear receptor coactivator 2, sequence (P37231 whole entry): as the sequence (P37231 whole entry) above
Peroxisome proliferator-activated receptor gamma/Nuclear receptor coactivator 2, sequence (Q15596 whole entry, further chain): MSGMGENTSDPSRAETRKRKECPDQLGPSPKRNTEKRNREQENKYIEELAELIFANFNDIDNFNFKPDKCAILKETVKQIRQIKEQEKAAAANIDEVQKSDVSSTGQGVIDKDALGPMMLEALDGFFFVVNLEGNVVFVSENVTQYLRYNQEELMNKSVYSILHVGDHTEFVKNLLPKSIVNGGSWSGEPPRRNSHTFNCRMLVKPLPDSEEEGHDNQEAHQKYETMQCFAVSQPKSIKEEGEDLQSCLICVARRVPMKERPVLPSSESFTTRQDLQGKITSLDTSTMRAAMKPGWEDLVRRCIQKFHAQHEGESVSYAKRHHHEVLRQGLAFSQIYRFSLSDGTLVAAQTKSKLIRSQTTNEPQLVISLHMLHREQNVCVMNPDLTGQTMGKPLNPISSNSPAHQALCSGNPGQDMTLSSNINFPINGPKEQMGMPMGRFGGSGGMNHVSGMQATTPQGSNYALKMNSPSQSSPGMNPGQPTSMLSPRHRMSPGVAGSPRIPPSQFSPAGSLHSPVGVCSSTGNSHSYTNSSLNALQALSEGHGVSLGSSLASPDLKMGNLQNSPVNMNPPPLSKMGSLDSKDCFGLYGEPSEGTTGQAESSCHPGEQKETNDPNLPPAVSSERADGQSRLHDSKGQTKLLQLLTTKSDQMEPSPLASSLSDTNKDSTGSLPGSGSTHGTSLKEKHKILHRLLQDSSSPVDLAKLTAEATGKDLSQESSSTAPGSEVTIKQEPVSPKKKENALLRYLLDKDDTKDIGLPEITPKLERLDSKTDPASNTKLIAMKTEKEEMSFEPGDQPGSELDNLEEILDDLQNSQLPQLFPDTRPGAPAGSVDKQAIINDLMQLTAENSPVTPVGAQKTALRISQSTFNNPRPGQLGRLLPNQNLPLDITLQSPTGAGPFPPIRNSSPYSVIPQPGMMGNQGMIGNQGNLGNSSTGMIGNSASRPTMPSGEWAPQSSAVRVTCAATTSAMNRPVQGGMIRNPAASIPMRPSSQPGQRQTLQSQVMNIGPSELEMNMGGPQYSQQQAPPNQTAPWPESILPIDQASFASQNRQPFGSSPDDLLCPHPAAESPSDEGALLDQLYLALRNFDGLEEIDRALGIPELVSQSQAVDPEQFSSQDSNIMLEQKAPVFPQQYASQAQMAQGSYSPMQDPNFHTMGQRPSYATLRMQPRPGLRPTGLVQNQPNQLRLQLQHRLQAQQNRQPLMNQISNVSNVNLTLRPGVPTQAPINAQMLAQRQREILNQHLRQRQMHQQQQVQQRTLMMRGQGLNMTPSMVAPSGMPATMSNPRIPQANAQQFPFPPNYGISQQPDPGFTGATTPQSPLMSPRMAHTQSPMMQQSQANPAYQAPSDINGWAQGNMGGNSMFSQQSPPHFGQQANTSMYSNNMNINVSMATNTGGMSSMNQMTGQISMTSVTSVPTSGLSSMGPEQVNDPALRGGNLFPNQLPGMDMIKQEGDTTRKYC

| SMILES | EC50 [1] | EC50 [2] | EC50 [3] | EC50 (HEK293 [4]) | EC50 (HEK293 [5]) | AC50 [7] | AC50 [8] | also measured |
| --- | --- | --- | --- | --- | --- | --- | --- | --- |
| Sc1nnc(-c2cc(-c3ccco3)[nH]n2)n1-c1ccccc1 | > 79.4 µM (not active) | > 79.4 µM (not active) | > 79.4 µM (inactive) |  |  |  |  |  |
| CCSc1cnn(-c2ccccc2)c(=O)c1SCC | 7.53 µM (active) | > 79.4 µM (not active) | 54.2 µM (inactive) |  |  |  |  |  |
| CC(C)(C)c1ccc(Cn2nnc3c(O)nc(C4CCN(C(=O)Cc5cccs5)CC4)nc32)cc1 |  |  |  | > 59.7 µM (inactive) | > 59.7 µM (inactive) |  |  |  |
| c1ccc2c(Nc3nc(-c4ccncc4)nc4ccccc34)cccc2c1 |  |  |  |  |  | 34 µM (active) | 18.7 µM (active) | EC50 [6]: > 195 µM (not active) |
| COC(=O)c1sccc1NS(=O)(=O)c1ccc(OC)cc1 |  |  |  |  |  | 28.2 µM (active) | 21.4 µM (active) |  |
| NC(=O)C1=CC2C3C=CC2(O)C(=O)OC3O1 (stereo not given) |  |  |  | > 59.7 µM (inactive) | > 59.7 µM (inactive) |  |  |  |

Reference: ChEMBL document CHEMBL1201862, “PubChem BioAssay data set” (2004)
